Laboratory results from US6858638B2, “Substituted indazoles, compositions containing them, method of production and use” (Aventis Pharma S.A., priority 2002, dated 2005).

Tests used:
Aurora2 kinase = biological target: T1, Aurora2 kinase (Homo sapiens, UniProt O14965); assay: Aurora2 kinase radioactivity scintillation assay using nickel chelate (NuMA substrate); type: biochemical; conditions: 10 μM; read-out: Aurora2 % inhib at 10 μM
T1 construct: A complete recombinant Aurora2 enzyme; His tag (N); made in house; host or cells: E. coli
T1 sequence (O14965 1-403): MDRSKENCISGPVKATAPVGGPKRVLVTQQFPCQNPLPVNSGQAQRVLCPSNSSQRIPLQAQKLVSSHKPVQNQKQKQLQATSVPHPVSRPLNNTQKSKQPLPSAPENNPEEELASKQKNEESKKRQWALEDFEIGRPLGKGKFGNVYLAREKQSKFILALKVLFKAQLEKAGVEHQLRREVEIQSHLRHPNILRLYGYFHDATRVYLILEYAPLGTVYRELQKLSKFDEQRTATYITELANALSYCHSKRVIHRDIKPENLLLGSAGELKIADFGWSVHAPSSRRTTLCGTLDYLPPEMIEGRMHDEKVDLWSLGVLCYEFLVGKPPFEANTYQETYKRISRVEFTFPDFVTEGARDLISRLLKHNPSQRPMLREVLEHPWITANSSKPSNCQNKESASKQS
In short: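 Read-out is 33P incorporation into His-NuMA (Q1687-H2101, 0.5 μM) captured on nickel chelate, after 30 min at 37 °C with 0.02 μM His-Aurora2 and 1 μM ATP. Expressed as percentage inhibition of uncompounded control activity, background subtracted.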

human KDR enzyme = biological target: T2, human KDR enzyme (Homo sapiens, UniProt P35968); assay: KDR substrate (PLCγ) phosphorylation, scintillation assay; type: biochemical; conditions: 10 μM; read-out: KDR % inhib at 10 μM
T2 construct: The cytoplasmic domain of the human KDR enzyme; GST; made in house; host or cells: SF21 insect cells (baculovirus)
T2 sequence (P35968 786-1356 limits assumed): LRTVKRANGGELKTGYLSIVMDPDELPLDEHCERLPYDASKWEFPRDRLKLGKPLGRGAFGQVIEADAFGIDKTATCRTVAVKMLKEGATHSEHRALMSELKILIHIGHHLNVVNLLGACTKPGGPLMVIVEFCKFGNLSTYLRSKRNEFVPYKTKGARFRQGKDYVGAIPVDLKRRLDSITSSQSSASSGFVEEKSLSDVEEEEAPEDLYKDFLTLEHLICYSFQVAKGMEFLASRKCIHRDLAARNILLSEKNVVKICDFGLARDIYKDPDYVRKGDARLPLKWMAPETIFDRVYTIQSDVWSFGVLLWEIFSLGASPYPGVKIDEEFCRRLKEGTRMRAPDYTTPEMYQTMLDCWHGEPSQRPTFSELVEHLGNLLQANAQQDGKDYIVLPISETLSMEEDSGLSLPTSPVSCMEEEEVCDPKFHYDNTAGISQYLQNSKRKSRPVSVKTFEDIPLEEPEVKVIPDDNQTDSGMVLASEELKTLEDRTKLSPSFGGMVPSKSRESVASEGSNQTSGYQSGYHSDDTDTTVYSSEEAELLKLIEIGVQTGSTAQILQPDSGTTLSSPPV
In short: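 Values are percent inhibition relative to the compound-free control, read by scintillation counting of 33P incorporation after EDTA stop. Baculovirus/SF21-expressed GST-KDR cytoplasmic domain (100 ng) acted for 1 h at 37 °C in pH 7.2 MOPS kinase buffer. The substrate was GST-PLCγ SH2-SH3 (2 μg), added with γ33P-ATP and 2 μM unlabeled ATP.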

human FAK = biological target: T3, human FAK (Homo sapiens, UniProt Q05397); assay: FAK autophosphorylation inhibition, time resolved fluorescence (HTRF) assay; type: biochemical; conditions: 10 μM (values without asterisk); read-out: FAK % inhib at 10 μM
T3 construct: The complete cDNA of human FAK; made in house; host or cells: baculovirus expression system (vector pFastBac HTc)
T3 sequence (Q05397 whole entry): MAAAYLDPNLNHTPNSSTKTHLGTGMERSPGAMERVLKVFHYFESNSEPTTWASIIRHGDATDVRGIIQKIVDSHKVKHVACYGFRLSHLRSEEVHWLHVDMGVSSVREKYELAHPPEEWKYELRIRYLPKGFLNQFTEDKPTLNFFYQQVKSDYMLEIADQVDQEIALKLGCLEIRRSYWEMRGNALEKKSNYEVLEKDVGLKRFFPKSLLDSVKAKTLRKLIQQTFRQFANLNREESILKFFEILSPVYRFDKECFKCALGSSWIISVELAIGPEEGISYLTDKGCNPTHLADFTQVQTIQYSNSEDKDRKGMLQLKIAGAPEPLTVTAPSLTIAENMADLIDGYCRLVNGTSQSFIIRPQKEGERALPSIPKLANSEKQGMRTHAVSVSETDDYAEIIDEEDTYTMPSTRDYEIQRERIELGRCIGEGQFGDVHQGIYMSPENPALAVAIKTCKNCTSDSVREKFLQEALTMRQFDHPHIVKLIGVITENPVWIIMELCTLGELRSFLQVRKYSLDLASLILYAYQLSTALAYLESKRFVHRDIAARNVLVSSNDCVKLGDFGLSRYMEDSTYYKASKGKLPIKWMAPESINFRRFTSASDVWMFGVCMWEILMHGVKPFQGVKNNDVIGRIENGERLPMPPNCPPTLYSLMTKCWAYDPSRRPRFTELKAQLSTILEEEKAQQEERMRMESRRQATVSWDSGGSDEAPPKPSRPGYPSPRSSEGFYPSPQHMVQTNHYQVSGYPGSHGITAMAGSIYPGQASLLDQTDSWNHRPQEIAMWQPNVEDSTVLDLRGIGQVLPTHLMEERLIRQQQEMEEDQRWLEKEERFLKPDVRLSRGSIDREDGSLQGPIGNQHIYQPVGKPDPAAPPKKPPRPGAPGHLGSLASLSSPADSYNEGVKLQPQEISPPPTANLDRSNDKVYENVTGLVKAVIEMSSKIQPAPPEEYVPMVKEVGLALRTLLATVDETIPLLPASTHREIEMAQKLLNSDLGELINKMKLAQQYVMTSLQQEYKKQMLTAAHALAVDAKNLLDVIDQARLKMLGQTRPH
In short: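 Autophosphorylation was detected by europium-cryptate anti-pTyr and XL665 anti-His energy transfer, percent inhibition from the 665/620 ratio relative to no-compound wells. Enzyme: His-FAK full length, 6.6 µg/ml, incubated 1 h at 37 °C, pH 7.2, 15 µM ATP.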

c-Src protein = assay: Src kinase phosphorylation of biotinylated cdc2 substrate, fluorescence (DELFIA); type: biochemical, human
Protocol: The inhibition of the Src kinase is evaluated by measuring the phosphorylation of the biotinylated cdc2 substrate (Pierce) detected by fluorescence (DELFIA) using an antiphosphotyrosine antibody labeled with Europium, in 96-well Wallac plates. The c-Src protein used is a recombinant human protein produced in Baculovirus, comprising the SH3 and SH2 and the catalytic domains. The enzyme, the substrate and the various concentrations of test compounds are placed in the well in a 50 mM Tris buffer containing 10 mM MgCl2. The reaction is initiated by adding 10 μM of ATP. After incubation for 60 minutes at 30° C., the reaction is stopped by adding 75 mM EDTA. 50 μl are taken from each well and transferred into a plate coated with streptavidin. After incubation for 30 minutes at 25° C., the wells are washed with a washing buffer (Wallac) and then the antiphosphotyrosine antibody (PY20-Europium [Perkin Elmer]) is added in a volume of 75 μl. The plate is incubated for 30 minutes at 25° C. and then an “Enhancer” solution (Wallac) is added before reading the fluorescence using a fluorimeter (Perkin Elmer). The background noise is evaluated in triplicate in wells containing the substrate and the antibody in the absence of enzyme. The activity of the enzyme is measured (in triplicate) in the wells containing all the reagents in the absence of compound. The inhibition of the Src activity is expressed as percentage inhibition of the activity of the control determined in the absence of compound. The compound PP2 (Calbiochem) is included at various concentrations in each experiment as an inhibition control.

NCI-H460 cells = conditions: concentration of 100 μM; cited from earlier work
HCT-15 cells = conditions: concentration of 100 μM; cited from earlier work

CS(=O)(=O)c1ccccc1S(=O)(=O)Nc1ccc2[nH]nc(-c3csc4ccccc34)c2c1 [Example 64, N-(3-Benzo[b]thiophen-3-yl-1H-indazol-5-yl)-2-methylsulfonylbenzenesulfonamide]
melting point: 235 °C | inhibition at 10 µM (Aurora2 kinase): 72% | inhibition at 10 µM (human KDR enzyme): 41% | inhibition at 10 µM (human FAK): 30% | SRC % inhib at 10 μM (c-Src protein): 86%

CS(=O)(=O)c1ccccc1S(=O)(=O)Nc1ccc2[nH]nc(-c3cccc4ccccc34)c2c1 [Example 72, 2-Methylsulfonyl-N-(3-naphthalen-1-yl-1H-indazol-5-yl)-benzenesulfonamide]
melting point: 186 °C | inhibition at 10 µM (Aurora2 kinase): 78% | inhibition at 10 µM (human KDR enzyme): 41% | inhibition at 10 µM (human FAK): 21% | SRC % inhib at 10 μM (c-Src protein): 77%

CS(=O)(=O)c1ccccc1S(=O)(=O)Nc1ccc2[nH]nc(-c3ccc4ccccc4c3)c2c1 [Example 73, 2-Methylsulfonyl-N-(3-naphthalen-2-yl-1H-indazol-5-yl)-benzenesulfonamide]
melting point: 221 °C | inhibition at 10 µM (Aurora2 kinase): 100% | inhibition at 10 µM (human KDR enzyme): 38% | inhibition at 10 µM (human FAK): 87% | SRC % inhib at 10 μM (c-Src protein): 40%

O=S(=O)(Nc1ccc2[nH]nc(-c3ccccc3)c2c1)c1cccnc1 [Example 96, N-(3-Phenyl-1H-indazol-5-yl)pyridine-3-sulfonamide]
melting point: 225 °C | inhibition at 10 µM (Aurora2 kinase): 100% | inhibition at 10 µM (human KDR enzyme): 91% | inhibition at 10 µM (human FAK): 67% | SRC % inhib at 10 μM (c-Src protein): 83%

O=[N+]([O-])c1cccc(S(=O)(=O)Nc2ccc3[nH]nc(-c4ccccc4)c3c2)c1 [Example 97, 3-Nitro-N-(3-phenyl-1H-indazol-5-yl)benzenesulfonamide]
melting point: 228 °C | inhibition at 10 µM (Aurora2 kinase): 93% | inhibition at 10 µM (human KDR enzyme): 96% | inhibition at 10 µM (human FAK): 50% | SRC % inhib at 10 μM (c-Src protein): 76%

O=S(=O)(Nc1ccc2[nH]nc(-c3ccccc3)c2c1)c1cc(Cl)cc(Cl)c1 [Example 137, 3,5-Dichloro-N-(3-phenyl-1H-indazol-5-yl)-benzenesulfonamide]
inhibition at 10 µM (Aurora2 kinase): 80% | inhibition at 10 µM (human KDR enzyme): 96% | inhibition at 10 µM (human FAK): 53% | SRC % inhib at 10 μM (c-Src protein): 59%

O=S(=O)(Nc1ccc2[nH]nc(-c3ccccc3)c2c1)c1ccccc1Br [Example 139, 2-Bromo-N-(3-phenyl-1H-indazol-5-yl)-benzenesulfonamide]
inhibition at 10 µM (Aurora2 kinase): 96% | inhibition at 10 µM (human KDR enzyme): 96% | inhibition at 10 µM (human FAK): 53% | SRC % inhib at 10 μM (c-Src protein): 51%

O=S(=O)(Nc1ccc2[nH]nc(-c3ccccc3)c2c1)c1cccc(Br)c1 [Example 141, 3-Bromo-N-(3-phenyl-1H-indazol-5-yl)-benzenesulfonamide]
inhibition at 10 µM (Aurora2 kinase): 80% | inhibition at 10 µM (human KDR enzyme): 97% | inhibition at 10 µM (human FAK): 38% | SRC % inhib at 10 μM (c-Src protein): 43%

CCCCN(CCCC)c1cccc2c(S(=O)(=O)Nc3ccc4[nH]nc(-c5ccccc5)c4c3)cccc12 [Example 147, 5-Dibutylamino-N-(3-phenyl-1H-indazol-5-yl)naphthalene-1-sulfonamide]
inhibition at 10 µM (Aurora2 kinase): 86% | inhibition at 10 µM (human KDR enzyme): 96% | inhibition at 10 µM (human FAK): 0% | SRC % inhib at 10 μM (c-Src protein): 88%

COc1cc(S(=O)(=O)Nc2ccc3[nH]ncc3c2)cc(OC)c1OC [N-(1H-indazol-5-yl)-3,4,5-trimethoxybenzenesulfonamide]
growth inhibition (NCI-H460 cells): 18.5% | growth inhibition (HCT-15 cells): 47.6%
